Data published in PubChem BioAssay (NCI).
Where “and” joins values, the source holds several entries; their conditions need not be identical. Equal values may be shown once.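 Method: 48-hour compound exposure of cells in 96-well plates, five concentrations, linear interpolation of endpoints. Abbreviation: GI50, concentration required for 50% inhibition of growth. TGI: concentration producing complete growth inhibition.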

Assays:
Experiment in all cases: DTP human tumour cell line panel, 48 h
MOLT-4 leukemia = system: MOLT-4 leukemia
HT29 colon = system: HT29 colon
ACHN renal = system: ACHN renal
NCI-H522 lung = system: NCI-H522 lung
DLD-1 colon = system: DLD-1 colon
DMS 114 small cell lung = system: DMS 114 small cell lung
U251 CNS = system: U251 CNS
HL-60(TB) leukemia = system: HL-60(TB) leukemia
LOX IMVI melanoma = system: LOX IMVI melanoma
PC-3 prostate = system: PC-3 prostate

| Compound | TGI (MOLT-4 leukemia) | TGI (HT29 colon) | TGI (ACHN renal) | TGI (NCI-H522 lung) | TGI (DLD-1 colon) | TGI (DMS 114 small cell lung) | TGI (U251 CNS) | TGI (HL-60(TB) leukemia) | TGI (LOX IMVI melanoma) | GI50 (PC-3 prostate) | TGI (PC-3 prostate) | GI50 (MOLT-4 leukemia) | GI50 (HT29 colon) | GI50 (ACHN renal) | GI50 (NCI-H522 lung) | GI50 (U251 CNS) | GI50 (HL-60(TB) leukemia) | GI50 (LOX IMVI melanoma) |
| --- | --- | --- | --- | --- | --- | --- | --- | --- | --- | --- | --- | --- | --- | --- | --- | --- | --- | --- |
| O=C(/C=C/c1ccc(O)cc1)c1cc(Cl)ccc1O | 55.8 µM | > 100 µM | > 100 µM | 36.2 µM | > 100 µM | 67.4 µM | > 100 µM | 45.8 µM | 56.2 µM |  |  |  |  |  |  |  |  |  |
| Cc1ccc2nc3c(C)cc(=O)cc-3sc2c1 | 38.9 µM | > 100 µM | 53.1 µM | 45.1 µM | > 100 µM | 45.5 µM | > 100 µM | 25.2 µM |  |  |  |  |  |  |  |  |  |  |
| COC(=O)C1(O)c2ccccc2N=C2C1CCN2C (stereo not given) | > 100 µM | > 100 µM | > 100 µM | > 100 µM | > 100 µM | > 100 µM | > 100 µM | > 100 µM | > 100 µM |  |  |  |  |  |  |  |  |  |
| CCCCCCCCCCCC(=O)OC(COC(N)=O)COc1ccc(Cl)cc1 (stereo not given) | 44.3 µM | 40.6 µM | > 100 µM | 31.5 µM | > 100 µM | 33.1 µM | 52.7 µM | 33.3 µM | 55 µM |  |  |  |  |  |  |  |  |  |
| O=C1CC[C@@H](NC(=O)Cc2ccccc2)C(=O)N1 | > 100 µM | > 100 µM | > 100 µM | > 100 µM | > 100 µM |  | > 100 µM |  | > 100 µM |  |  |  |  |  |  |  |  |  |
| NCC1(N2CCOCC2)C2CCCC21CNc1ccccc1 (stereo not given) | > 100 µM | > 100 µM | > 100 µM | > 100 µM | > 100 µM | > 100 µM | > 100 µM | > 100 µM | > 100 µM |  |  |  |  |  |  |  |  |  |
| CCCCC(C(=O)CCC(=O)Nc1ccc(Cl)cc1)C(=O)C(C)C (stereo not given) | > 100 µM | > 100 µM | > 100 µM | > 100 µM | > 100 µM | > 100 µM | > 100 µM | > 100 µM | > 100 µM |  |  |  |  |  |  |  |  |  |
| Cc1ccc(NC(=O)C(=O)CC(=O)c2ccccc2)cc1C |  | > 100 µM | > 100 µM | > 100 µM | > 100 µM | > 100 µM | > 100 µM |  | > 100 µM |  |  |  |  |  |  |  |  |  |
| Cn1cnc([N+](=O)[O-])c1Sc1nc2ccc([N+](=O)[O-])cc2[nH]1 | 47.7 µM | > 100 µM | > 100 µM |  | 32.6 µM |  | > 100 µM | > 100 µM | 60.1 µM |  |  |  |  |  |  |  |  |  |
| NC(=O)c1ncn(Cc2ccccc2)c1CNC(N)=S | > 100 µM | > 100 µM | > 100 µM |  | > 100 µM | > 100 µM | > 100 µM | > 100 µM | > 100 µM |  |  |  |  |  |  |  |  |  |
| CC[C@@]1(O)C(=O)NCc2c1cc1n(c2=O)Cc2cc3c(NC(C)=O)cccc3nc2-1 | > 100 µM | > 100 µM | > 100 µM | > 100 µM |  |  | > 100 µM | > 100 µM | > 100 µM | > 100 µM | > 100 µM | > 100 µM | > 100 µM | > 100 µM | > 100 µM | > 100 µM | > 100 µM | > 100 µM |
| CNc1ncc2cc(-c3cc(NC(=O)NCCC(C)(C)C)c(F)cc3C)c(C)nc2n1 | > 69.7 µM | > 41.5 µM | > 24.6 µM | > 20.9 µM |  |  | 31.6 µM and > 10 µM | 17.8 µM and > 10 µM | 2.23 µM and 2 µM | 17.4 µM and 6.93 µM | > 100 µM | 0.688 µM and > 2.45 µM | 0.0177 µM and 0.0194 µM | 0.198 µM and 0.262 µM | 0.294 µM and 0.333 µM | 0.572 µM and 0.474 µM | 0.0668 µM and 0.0811 µM | 0.102 µM and 0.0573 µM |
| N#Cc1c(N)c(C#N)c2c(c1-c1ccc(Cl)cc1)COc1ccc(F)cc1-2 | > 50 µM | > 50 µM | > 50 µM | 14.5 µM |  |  | > 50 µM | > 50 µM | > 50 µM | > 50 µM | > 50 µM | > 50 µM | 49.7 µM | 19.7 µM | 2.75 µM | 22 µM | > 50 µM | 43.9 µM |
| COc1cc(NC(C)CCCN2C(=O)c3ccccc3C2=O)c2ncccc2c1OC (stereo not given) | > 100 µM | > 100 µM | > 100 µM | > 100 µM |  |  | > 100 µM | > 100 µM | > 100 µM | 24.9 µM | 71.1 µM | 38.3 µM | 36.3 µM | 29.9 µM | 35.4 µM | 46.8 µM | 15.2 µM | 28.2 µM |
| c1ccc2c(c1)N=C(c1ccc3ccccc3c1)CC(c1cccc3ccccc13)S2 (stereo not given) | 44.2 µM | > 100 µM | > 100 µM | 75.4 µM | > 100 µM | > 100 µM | > 100 µM | 47.1 µM | > 100 µM |  |  |  |  |  |  |  |  |  |
| COc1cc(-c2nn(-c3cccc(NC(=O)CCN4CCN(C)CC4)c3)cc2-c2ccncc2)ccc1Cl | 4.89 µM | 1.64 µM | 10.7 µM | 1.08 µM |  |  | 3.4 µM | 2.79 µM | 2.22 µM | 0.995 µM | 3.68 µM | 1.44 µM | 0.371 µM | 1.61 µM | 0.283 µM | 1.29 µM | 0.735 µM | 0.922 µM |
| CC1(C)CC(N2CCN(C3CC(C)(C)NC(C)(C)C3)CC2)CC(C)(C)N1 | > 100 µM | > 100 µM | > 100 µM | > 100 µM | > 100 µM | > 100 µM | > 100 µM | > 100 µM | > 100 µM |  |  |  |  |  |  |  |  |  |
| Cc1[nH]n(-c2cccc(Cl)c2)c(=O)c1/C=C1\C=c2ccccc2=CC1=O | > 100 µM | > 100 µM | > 100 µM | > 100 µM |  |  | > 100 µM | > 100 µM | > 100 µM | > 100 µM | > 100 µM | > 100 µM | > 100 µM | 17 µM | > 100 µM | 40.7 µM | > 100 µM | > 100 µM |
| CC(C)[C@H](C(=O)O[C@@H]1/C=C/C(=O)O[C@@H](C)CCC/C=C/[C@@H]2C[C@H](O)C[C@H]21)N(C)C | 42.2 µM | > 36 µM | > 100 µM | > 68.8 µM |  |  | > 100 µM | 50.7 µM | 26.9 µM | 10.9 µM | > 57.8 µM | 14.9 µM | 4.67 µM | 35.2 µM | 26.5 µM | 20.3 µM | 28.2 µM | 9.59 µM |
| c1cc2c(c(NC3=NCCN3)c1)CCCC2 | > 100 µM | > 100 µM | > 100 µM | > 100 µM |  |  | > 100 µM | > 100 µM | > 100 µM |  | > 100 µM |  |  |  |  |  |  |  |
